Where “and” joins values, the source holds several entries; their conditions need not be identical. Equal values may be shown once. Where a name gives a salt, the structure may show the parent alone. Read-outs that look alike come from different tables or passages of the source.
Columns and labels:
[1] = tested on: p34^cdc2-cyclin B kinases; details: Havlicek et al. 1997; cited from earlier work
cdk2/cyclin E = target: T1, cdk2/cyclin E (Homo sapiens, UniProt P24941); assay: Cyclin-Dependent Kinase 2 Assay (cdk-2 inhibition); type: biochemical; details: GST-Rb substrate, 30 min at 30° C.
T1 construct: made in house; host or cells: insect cells (baculovirus co-infection)
Procedure, shortened: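 GST-Rb bound to glutathione-Sepharose beads (0.5 μg/well) as substrate in 50 mM HEPES pH 7.5, 10 mM MgCl2, 1 mM EGTA. Recombinant cdk2/cyclin E at 0.1 μg per 100 μl, 30 min at 30 °C. Reaction stopped by filtration, TNEN washes, scintillation counting.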

cdk4/cyclin D1 = target: T2, cdk4/cyclin D1 (Homo sapiens, UniProt P11802); assay: Cyclin-dependent kinase 4 Assay; type: biochemical; details: cdk4/cyclin D1, GST-Rb substrate, 10 μM ATP, 30 min at 37° C.; read-out: CDK4 Inhibition IC50
T2 construct: made in house; host or cells: Sf9 insect cells (Bac-to-Bac baculovirus, pFastBac)
T2 sequence (P11802 whole entry): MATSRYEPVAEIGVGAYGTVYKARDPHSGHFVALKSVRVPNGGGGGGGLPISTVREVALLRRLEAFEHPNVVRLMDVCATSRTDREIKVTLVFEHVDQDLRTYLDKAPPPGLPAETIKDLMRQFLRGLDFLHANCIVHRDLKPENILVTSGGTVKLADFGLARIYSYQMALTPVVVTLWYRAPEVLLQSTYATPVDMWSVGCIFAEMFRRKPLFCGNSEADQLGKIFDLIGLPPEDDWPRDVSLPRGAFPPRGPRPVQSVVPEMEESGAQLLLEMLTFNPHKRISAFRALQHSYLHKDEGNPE
T2 sequence (P24385 whole entry partner): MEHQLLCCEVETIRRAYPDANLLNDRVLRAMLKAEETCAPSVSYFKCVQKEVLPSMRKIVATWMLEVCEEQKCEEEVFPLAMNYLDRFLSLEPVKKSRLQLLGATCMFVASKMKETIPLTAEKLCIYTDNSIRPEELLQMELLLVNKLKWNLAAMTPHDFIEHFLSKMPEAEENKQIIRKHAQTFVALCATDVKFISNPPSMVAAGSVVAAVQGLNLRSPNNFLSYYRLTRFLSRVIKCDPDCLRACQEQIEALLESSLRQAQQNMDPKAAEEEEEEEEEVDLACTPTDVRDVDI
Procedure, shortened: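 Insect-cell lysate of coexpressed human cdk4/cyclin D1 (0.1 μg) phosphorylated bead-bound GST-Rb (0.5 μg) in 50 mM HEPES pH 7.5, 10 mM MgCl2, 1 mM EGTA for 30 min at 37 °C. Filters were washed with TNEN and scintillation-counted; IC50 values derived.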

MCF-7 = assay: In vitro tumor cell proliferation, MCF-7; type: cell-based, human; details: read-out: In vitro Tumor Cell Proliferation (IC50, μM) Breast MCF-7
Protocol: (§1) The proliferation of tumor cells was measured using a sulforhodamine B assay as described in Skehan, P., et al., J. Natl. Cancer Inst. […] Tumor cells were harvested with trypsin-EDTA, cells that excluded trypan blue were counted, added to 96-well plates and incubated overnight at 37° C. Drug was added to the wells following dilution in culture medium. Three days later, the medium was removed and replenished with medium containing fresh drug and incubated an additional 4 days. The cells were then fixed with 0.1 ml 10% trichloroacetic acid for 60 min at 4° C. The plates were rinsed five times with tap water, air-dried and stained for 30 min with 0.4% sulforhodamine B in 1% acetic acid and air-dried.
(§2) Alternatively, the CyQUANT cell proliferation assay was used to quantify tumor cell proliferation. Tumor cells were harvested with trypsin-EDTA, cells that excluded trypan blue were counted, added to 96-well plates and incubated overnight at 37° C. Drug was added to the wells following dilution in culture medium. Three days later the medium was removed and the plates frozen at −80° C. for at least 30 minutes.
MCF7 is a human breast adenocarcinoma, hormone-dependent (HTB 22);

MDA-MB-231 = assay: In vitro tumor cell proliferation, MDA-MB-231; type: cell-based, human; details: read-out: In vitro Tumor Cell Proliferation (IC50, μM) Breast MDA-MB-231
Procedure, shortened: (§3)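 Cells seeded overnight at 37° C, then exposed to drug 3 days, medium and drug renewed, plus 4 more days; TCA-fixed and sulforhodamine B stained. Alternatively CyQUANT read-out after 3 days' drug exposure, plates frozen at −80° C.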

HT-29 = assay: In vitro tumor cell proliferation, HT-29; type: cell-based, human; details: read-out: In vitro Tumor Cell Proliferation (IC50, μM) Colon HT-29 (converted)
Procedure, shortened: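 HT-29 human colon adenocarcinoma cells plated overnight at 37° C., then exposed to drug for 3 days, medium with fresh drug replaced for a further 4 days. Cells fixed with 10% TCA and stained with 0.4% sulforhodamine B; alternatively, CyQUANT read after 3 days of drug exposure.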

HCT-15 = assay: In vitro tumor cell proliferation, HCT-15; type: cell-based, human; details: read-out: In vitro Tumor Cell Proliferation (IC50, μM) Colon HCT-15
Protocol: as §1, §2

A549 = assay: In vitro tumor cell proliferation, A549; type: cell-based, human; details: read-out: In vitro Tumor Cell Proliferation (IC50, μM) Lung A549
Procedure, shortened: as §3

DMS-114 = assay: In vitro tumor cell proliferation, DMS-114; type: cell-based, human; details: read-out: In vitro Tumor Cell Proliferation (IC50, μM) Lung DMS-114
Procedure, shortened: as §3

PC-3 = assay: In vitro tumor cell proliferation, PC-3; type: cell-based, human; details: read-out: In vitro Tumor Cell Proliferation (IC50, μM) Prostate PC-3
Procedure, shortened: as §3

DU 145 = assay: In vitro tumor cell proliferation, DU 145; type: cell-based, human; details: read-out: In vitro Tumor Cell Proliferation (IC50, μM) Prostate DUI45
Procedure, shortened: as §3

[2] = tested on: neuronal PC12 cells and sympathetic neurons; details: cited from earlier work
[3] = tested on: PC12 cells, or rat sympathetic neurons; details: cited from earlier work
cortical neurons = details: cited from earlier work
proliferating PC12 cells = details: cited from earlier work
[4] = Homo sapiens, MCF7, values without *
[5] = values without *, trihydrochloride
[6] = Homo sapiens, MDA-MB-231, values without *
[7] = Homo sapiens, HT-29, values without *
[8] = Homo sapiens, HCT-15, values without *
[9] = Homo sapiens, A549, values without *
[10] = Homo sapiens, DMS-114, values without *
[11] = Homo sapiens, PC-3, values without *
[12] = Homo sapiens, DU-145, values without *
[13] = values without *, dihydrochloride

Row | SMILES | IC50 (cdk2/cyclin E) | IC50 (cdk4/cyclin D1) [µM] | IC50 (MCF-7; [4]) [µM] | IC50 (MDA-MB-231; [6]) [µM] | IC50 (HT-29; [7]) [µM] | IC50 (HCT-15; [8]) [µM] | IC50 (A549; [9]) [µM] | IC50 (DMS-114; [10]) [µM] | IC50 (PC-3; [11]) [µM] | IC50 (DU 145; [12]) [µM] | also measured
1 | CC[C@@H](CO)Nc1nc(NCc2ccccc2)c2ncn(C(C)C)c2n1 (single isomer, unassigned) [(S) enantiomer] | – | – | – | – | – | – | – | – | – | – | IC50 [1]: 800 nM
2 | CC(C)n1cnc2c(NCc3ccccc3)nc(N[C@H]3CC[C@H](N)CC3)nc21 [Example 45, 2-[Trans-(4-aminocyclohexyl)amino]-6-(benzylamino)-9-(2-propyl)purine trihydrochloride] | 180 nM | 12 | 1.6 | 4 | 4.8 | 16 | 2 | 2.1 | 2.4 | 2.5 | IC50 (MCF-7; [5]): 1.7 µM; IC50 (MDA-MB-231; [5]): 3 µM; IC50 (HT-29; [5]): 3.5 µM; IC50 (HCT-15; [5]): 17 µM; IC50 (A549; [5]): 1.8 µM; IC50 (DMS-114; [5]): 1.6 µM; IC50 (PC-3; [5]): 1.4 µM; IC50 (DU 145; [5]): 1.9 µM
3 | N[C@H]1CC[C@H](Nc2nc(NCCCn3ccnc3)c3ncn(C4CCCC4)c3n2)CC1 [Example 46, 2-[Trans-(4-aminocyclohexyl)amino]-6-[3-(1-imidazolyl)propylamino]-9-cyclopentylpurine dihydrochloride] | 20 nM and 17 nM and 21 nM | 0.45 | 3.5 | 5.2 | 6.2 | – | 6 | 5.4 | 2 | 5.1 | IC50 (MCF-7; [13]): 4.9 µM; IC50 (MDA-MB-231; [13]): 7 µM; IC50 (HT-29; [13]): 9.7 µM; IC50 (HCT-15; [13]): 16 µM; IC50 (A549; [13]): 6.7 µM; IC50 (DMS-114; [13]): 7.4 µM; IC50 (PC-3; [13]): 3 µM; IC50 (DU 145; [13]): 6 µM
4 | CN1CC[C@H](c2c(O)cc(O)c3c(=O)cc(-c4ccccc4Cl)oc23)[C@H](O)C1 [Flavoipiridol, reference compound] | – | – | 0.06 | 0.095 | – | 0.1 | 0.08 | 0.08 | 0.07 | 0.08 | apoptosis of post-mitotic differentiated or sympathetic neurons ([2]; following withdrawal of NGF): prevented apoptosis; death of neuronal PC12 cells and sympathetic neurons ([2]; two model systems of neuronal survival, Park et al. 1996): suppress the death; cell death at day 6 ([3]; both or individual olomoucine or flavopiridol, in the presence or absence of camptothecin): approximately 30%; concentration giving maximal protection from death ([3]; camptothecin-treated PC12 cells or rat sympathetic neurons): 1 µM; IC50 (cortical neurons; Park et al. 1997, read-out: IC50, protection against camptothecin-induced cortical neuronal death): 100 nM; minimum concentration that fully inhibits DNA synthesis (proliferating PC12 cells): 1 µM
5 | Cn1cnc2nc(NCCO)nc(NCc3ccccc3)c21 [iso-olomoucine] | – | – | – | – | – | – | – | – | – | – | prevention of cell death of camptothecin-treated neuronal cells ([3]; PC12 cells / sympathetic neurons): failed to prevent the cell death; prevention of cell death of camptothecin-treated neuronal cells (cortical neurons; cortical neurons): failed to prevent the cell death

Reference: US6413974B1, “6,9,-disubstituted 2-[trans-(4-aminocyclohexyl) amino] purines” (Aventis Pharmaceuticals Inc., priority 1998, dated 2002)
